The numbers were not newly measured in US7129249B2, “Heterocyclic amide derivatives as inhibitors of glycogen phoshorylase” (AstraZeneca AB, priority 2002, dated 2006), which cites them from elsewhere.

One series deals with conscious dogs. The conditions noted are these: following a glucagon challenge.
The test system of another series is db/db and ob/ob mice. The conditions noted are these: db/db and ob/ob mice following treatment.

For the compound `CCN1C(C)=C(C(=O)OC(C)C)C(c2ccccc2Cl)C2=C1COC2=O` (centres unmarked) [Bay R 3401], in the series on conscious dogs, the arterial plasma glucose entry is listed as “reduced significantly” and the hepatic glucose output result is reported as “reduced significantly”.
In the case of `CN(C)C(=O)[C@H](O)[C@H](Cc1ccccc1)NC(=O)c1cc2cc(Cl)ccc2[nH]1` [CP91149], in the series on hepatocytes, the glucagon stimulated glycogenolysis entry was “reduce” and the glucose output entry was “reduce”. Also, the plasma glucose concentration entry in the series with db/db and ob/ob mice is recorded as “reduced, in a dose related manner”.
For the compound `O=C(N[C@@H](Cc1ccc(F)cc1)C(=O)N1CCC(O)CC1)c1cc2cc(Cl)ccc2[nH]1` [CP320626], in the series with hepatocytes, the glucagon stimulated glycogenolysis entry was “reduce” and the glucose output entry is “reduce”. For the same compound, the plasma glucose concentration entry in the series with db/db and ob/ob mice is “reduced, in a dose related manner”.
